Assay results from US6469174B1, “Substituted pyrrolobenzimidazoles for treating inflammatory diseases” (Ortho-McNeil Pharmaceutical, Inc., priority 1998, dated 2002).
Read-outs that look alike come from different tables or passages of the source.

Experiments:
TNF-α [1] = assay: In vitro whole cell assay: LPS-stimulated TNF-α production in PBMC (ELISA); assay type: cell-based; settings: LPS-stimulated human PBMC
Description: In addition to the enzyme assay, many of the compounds of the invention were tested in an in vitro whole cell assay using peripheral blood mononuclear cells (“PBMC”) which were obtained from human blood as follows. Freshly obtained venous blood was anticoagulated with heparin, diluted with an equal volume of phosphate buffered saline (“PBS”) and placed in a sterile tube or other container. Aliquots (30 mL) of this mixture were transferred to centrifuge tubes which were underlaid with Ficoll-Hypaque (15 mL). The prepared tubes were centrifuged at 400×g without braking for 30 minutes at room temperature. Approximately ½ to ⅔ of the platelet layer above the mononuclear cell band was removed with a pipet. The majority of the mononuclear cell layer was carefully removed using a pipet and these PBMC's were diluted with PBS and spun at 600×g for 15 minutes. The resulting PBMC's were washed with another portion of PBS and spun at 400×g for 10 minutes at room temperature. The recovered pellets were diluted in low endotoxin RPMI/1% FCS culture medium and gave a cell concentration of 0.5-2.0×10^6 PBMC/ mL. A small volume of the suspension was removed for counting on a hemocytometer and the remaining preparation was centrifuged at 200×g for 15 minutes at room temperature. The recovered pelleted PBMC's were resuspended in RPMI/1% FCS to a concentration of 1.67×10^6/mL.
To run the assay, the PBMC suspension (180 μL) was transferred to duplicate wells of a 96-well flat-bottom microtiter plate and incubated for 1 hour at 37° C. A solution of test compound (10 μL: prepared at 20×the desired final concentration) was added to each well and the plate was incubated for 1 hour at 37° C. A solution (10 μL) of LPS in RPMI/1% FCS (200 ng/mL) was added and the wells were incubated overnight at 37° C. The supernatant (100 μL) was removed from each well and diluted with RPMI/1% FCS (400 μL). The samples were analyzed for TNF-α using a commercial ELISA kit (Genzyme).
Certain compounds of the invention are listed in Tables A and B. The compounds were tested for their ability to inhibit TNF-α in vitro. The data are listed as an IC50 or as the % inhibition at a given concentration.

p38 = p38 (Homo sapiens, UniProt Q16539); assay: In vitro enzyme assay: inhibition of p38 activity; assay type: biochemical
Description: Compounds of the invention were measured for their ability to inhibit the activity of p38 by the following in vitro assay.
A solution (38 μL) of purified recombinant p38 (where the amount of enzyme was determined empirically considering the linear range of the assay and the acceptable signal to noise ratio; 6×His-p38 expressed in E. coli), myelin basic protein substrate (also determined empirically), and a buffer of pH 7.5 (Hepes:25 mM, MgCl2:10 mM, MnCl2:10 mM) were added to 92 wells of a 96-well round bottom polypropylene plate. The remaining wells were used for control (“CTRL”) and background (“BKG”).
The CTRL was prepared with the enzyme, substrate buffer and 2% DMSO, and the BKG was prepared with substrate buffer and 2% DMSO. […]
The contents of each well were transferred to the wells of a 96-well filterplate (Millipore, MultiScreen-DP) and the filterplate was placed on a vacuum manifold, fitted with a waste collection tray. […] MicroScint-20 scintillant was added, the plates were sealed using Topseal-S sheets and counted in a Packard TopCount scintillation counter using a ^33P liquid program with color quench correction, where the output is in color quench-corrected cpm.
The % inhibition of the test compounds was calculated by the following formula: % inhibition=[1−(sample −BKG)/(CTRL−BKG)]×100.

TNF-α [2] = assay: In vivo LPS-induced TNF-α production, oral dosing; settings: mouse, LPS 1 mg/kg i.p.
Description: Mice (BALB/cJ females, Jackson Laboratories) or rats (Lewis males, Charles River) were fasted for 30 minutes prior to oral dosing with 5-10 mL/kg of test compound at 5-50 mg/kg. Thirty minutes after dosing, the animals were injected intraperitoneally with LPS at 1 mg/kg and returned to their cages for 1 hour. Animals were anesthetized by CO2, exsanguinated by cardiac puncture and whole blood collected (0.1-0.7 mL). The blood was allowed to clot and serum was transferred to a centrifuge tube. This sample was centrifuged, serum was collected, aliquoted and frozen at −80° C. Samples were tested by commercial ELISA's for TNF-α (Endogen for mouse TNF-α and Biosource for rat TNF-α).

[3] = Table B, read-out: IC50 (TNF-α in vitro)

Chain of p38 (Q16539 whole entry): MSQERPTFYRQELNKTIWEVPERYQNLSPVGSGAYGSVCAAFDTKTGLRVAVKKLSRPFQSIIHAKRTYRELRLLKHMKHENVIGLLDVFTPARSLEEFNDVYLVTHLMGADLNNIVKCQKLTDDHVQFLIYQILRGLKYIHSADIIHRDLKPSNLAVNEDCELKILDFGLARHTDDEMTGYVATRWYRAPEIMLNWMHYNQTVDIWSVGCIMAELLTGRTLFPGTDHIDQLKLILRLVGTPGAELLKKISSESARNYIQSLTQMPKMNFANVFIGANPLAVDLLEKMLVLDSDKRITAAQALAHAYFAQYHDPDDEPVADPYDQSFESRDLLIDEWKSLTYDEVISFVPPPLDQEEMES

Fc1ccc(-c2[nH]c3ccc4[nH]c(Cc5ccccc5)nc4c3c2-c2ccncc2)cc1 [Compound 1, 1,6-Dihydro-7-(4-fluorophenyl)-8-(4-pyridyl)-2-phenylmethyl-pyrrolo [3,2-e] benzimidazole]
IC50 (TNF-α [1]; Table A, read-out: TNF-α IC50): 7 nM | inhibition at 20 µM (p38): 44% | inhibition of TNF-α (TNF-α [2]; 10 mg/kg): 74% | inhibition of TNF-α (TNF-α [2]; 25 mg/kg): 91%

Fc1ccc(-c2[nH]c3ccc4nc(-c5ccccc5)[nH]c4c3c2-c2ccncc2)cc1 [Compound 2, 1,6-dihydro-7-(4-fluorophenyl)-8-(4-pyridyl)-2-phenyl-pyrrolo[3,2-e]benzimidazole]
IC50 (TNF-α [1]; Table A, read-out: TNF-α IC50): 20 nM

CCCCc1nc2ccc3[nH]c(-c4ccc(F)cc4)c(-c4ccncc4)c3c2[nH]1 [Compound 4, 1,6-dihydro-7-(4-fluorophenyl)-8-(4-pyridyl)-2-butyl-pyrrolo[3,2-e]benzimidazole]
IC50 (TNF-α [1]; Table A, read-out: TNF-α IC50): 45 nM

Fc1ccc(-c2[nH]c3ccc4nc(CCc5ccccc5)[nH]c4c3c2-c2ccncc2)cc1 [Compound 7, 1,6-dihydro-7-(4-fluorophenyl)-8-(4-pyridyl)-2-(2-phenylethyl)-pyrrolo[3,2-e]benzimidazole]
IC50 (TNF-α [1]; Table A, read-out: TNF-α IC50): 50 nM

Fc1ccc(-c2c(-c3ccncc3)[nH]c3ccc4nc[nH]c4c23)cc1 [Compound 9, 1,6-dihydro-7-(4-pyridyl)-8-(4-fluorophenyl)-pyrrolo[3,2-e]benzimidazole]
IC50 (TNF-α [1]; [3]): 15 nM

Fc1ccc(-c2c(-c3ccncc3)[nH]c3ccc4nc(Cc5ccccc5)[nH]c4c23)cc1 [Compound 10, 1,6-dihydro-7-(4-pyridyl)-8-(4-fluorophenyl)-2-phenylmethyl-pyrrolo[3,2-e]benzimidazole]
IC50 (TNF-α [1]; [3]): > 400 nM

Fc1ccc(-c2c(-c3ccncc3)[nH]c3ccc4c(ncn4CCCc4ccccc4)c23)cc1 [Compound 11, 3,6-dihydro-8-(4-fluorophenyl)-3-(3-phenylpropyl)-7-(4-pyridyl)-pyrrolo[3,2-e]benzimidazole]
inhibition at 0.4 µM (TNF-α [1]; @ 400 nM, Table B, read-out: % inhibition of TNF-α at a given concentration): 0%
